Read-outs that look alike come from different tables or passages of the source.
Experiments:
[1] = tested on: Eμ-Myc lymphoma cells; experiment: Shh-induced proliferation of lymphoma cells without stromal layer, Alamar Blue assay; type: cell-based, mouse; conditions: Shh 10 μM over 48 h; 5E1 10 μg/ml, cyclopamine 5 μM
Procedure: Luminescence was measured after 0 h, 24 h and 48 h after seeding of 2×10E4 luciferased lymphoma cells on the stroma cells; and F: RT-PCR analysis of transcripts from Hh pathway members and targets in spleen lymphocytes and different lymphoma cell lines.
Cell culture experiments: Lymphoma cells were infected with a retrovirus containing a pMSCV IRES puro-luc sequence and selected for 7 days with puromycin on puromycin-resistant Cdkn2a−/− stroma. […] Both were dissolved as x 1,000 stocks in DMSO. SCF was obtained from RDI, and all other cytokines were obtained from R&D systems. 5E1 anti-ShhN monoclonal antibody was obtained from the developmental hybridoma bank and was used at a concentration of 10 μg/ml. For cytokine stimulation and Shh inhibition in supernatant lymphoma cells were seeded into 96-well plates at a density of 20,000 cells per well and mitochondrial activity of viable cells was measured with an Alamar Blue Assay as described.

[2] = tested on: Eμ-Myc lymphoma cells; experiment: Luciferase assay and light microscopy of luciferased lymphoma cells on stromal layer; type: cell-based, mouse; conditions: for Response rate to cyclopamine treatment (responsive/tested cultures) / Response rate to cyclopamine treatment: Myc-lymphomas; for Response rate to cyclopamine treatment: >80% growth inhibition at 5 μM
Procedure: (§1) For Shh pathway inhibition on stroma, 6200 stroma cells were seeded per 96-well. After 24 hours 20,000 luciferased lymphoma cells were seeded on the stroma cells and 2 hours later compound or DMSO was added. Luciferase assay was performed with Bright-glow reagent as described. To generate cells overexpressing Hh pathway members, lymphoma cells were infected with Smo, Smo 535, Smo 562, Gli1 and Fused-pMSCV IRES GFP constructs and then sorted for GFP positive cells.
In order to investigate whether the Hh signalling pathway does indeed contribute to the survival and proliferation of lymphoma cells growing on an intact stromal layer, lymphoma cells were luciferased using a retrovirus expressing a puromycin/Luc fusion cassette. 2×10E4 lymphoma cells constitutively expressing luciferase were added to each 96-well containing a stromal layer (not expressing luciferase) isolated from Cdkn2a^−/− mice. A total of 34 individual Eμ-Myc-lymphomas and 8 Cdkn2a-lymphomas were tested. A luciferase assay was performed as a readout for cell viability and proliferation and results were also documented by light microscopy.

[3] = tested on: lymphoma cells; experiment: Annexin V staining, flow cytometry; type: cell-based, mouse; conditions: 5 μM
[4] = tested on: lymphoma cells; experiment: Cell cycle distribution of gated viable cells; type: cell-based, mouse; conditions: after 12 hours of treatment; 20.4% before
[5] = tested on: Myc-Ly6 cells overexpressing Smo, Smo535, Smo562, Gli1 or Fused; experiment: Luciferase assay with lymphoma cells overexpressing Hh pathway members on stromal layer; type: cell-based, mouse; conditions: for IC50: Mus musculus, 48 h
Procedure: as §1

[6] = tested on: Myc lymphoma cells (p53−/−, Cdkn2a−/−, Bcl2+, Bax−/−, Caspase3−/−); conditions: for apoptosis: 5 μM, 48 hours
Text: Genetically altered mice and culture of primary cells: Eμ-Myc mice (Adams et al., Nature 318: 533-53824, 1985), Cdkna^−/− mice (Serrano et al., Cell. 85:27-3725, 1996), Bax^−/− mice (The Jackson Laboratory, Bar Harbor, Me.), Caspase3^−/− mice (The Jackson laboratory), p53^−/− mice (The Jackson Laboratory) and Bcl2 tg mice (The Jackson laboratory) were maintained and genotyped as described. Eμ-Myc mice and Cdkn2a−/− mice were monitored for signs of disease including development of visible lymphomas or weight loss from more than 15%. Mice with terminal disease were sacrificed, bone marrow, spleen and lymph nodes were extracted and lymphoma cells were propagated under Witlock/Witte culture conditions. For maintained growth cells were transferred on bone marrow stroma from Cdkn2a−/− mice after 2-3 weeks of culture. For generation of lymphomas with defined genetic background, bone marrow from p53−/− mice, Caspase3−/− mice, Bax−/− mice, Cdkn2a−/− mice and Bcl2 tg mice was extracted and pMSCV c-Myc IRES GFP was overexpressed. Propagation of transformed lymphocytes was performed under Witlick/Witte culture conditions and lymphomas were maintained on stroma from Cdkn2a−/− mice.
To better understand which specific pathways are involved in the regulation of growth and survival through Hh signalling in lymphoma cells, lymphoma cell cultures were generated in multiple different genetic backgrounds in order to modify either apoptotic or failsafe pathways. Bone marrow extracted from wt C57BL/6, Bcl2 transgenic, Bax^−/− Caspase-3^−/−, CDKN2a^−/− and p53^−/− mice was infected with pMSCV-Myc-GFP and transformed lymphocyte cultures were obtained using Whitlock/Witte culture conditions in the absence of IL-7. […] Similar to cultures established from primary lymphomas, lymphocytes transformed by retroviral transduction were transferred to bone marrow stroma of CDKN2a^−/− mice for longer term culture.

[7] = tested on: Eμ-Myc lymphoma cells; experiment: Luciferased lymphoma cells injected into C57BL/6 mice, treatment from day 2; type: in vivo, mouse
Procedure: (§2) D: injection of 1 Mio luciferased lymphoma cells in C57B16 mice.
(§3) Mouse experiments: Black6 mice between 6 and 8 weeks of age were injected with 1 Mio luciferased lymphoma cells. […] Bioluminescence was measured with injection of […].
In order to verify the importance of the Hh pathway for lymphoma growth and expansion in mice, we injected 1e6 lymphoma cells expressing luciferase into syngeneic C57BL/6 mice. […] Luciferase levels were measured by bioluminescence imaging twice a week.

[8] = tested on: lymphoma cells (Ly9)
Procedure: as §2
Immunohistochemistry: Single colour DAB-immunoperoxidase staining was performed as described. Antibodies were obtained from Santa Cruz Biotechnologies (for Shh antibody, N-19), NeoMarkers (for Ki67 antibody) and Promega (for PARP antibody).
as §3
We next wished to determine the importance of Hh signalling in established lymphomas.

[9] = 50 mg/kg twice a day for 3 days, vs control group

`CC1=C2C[C@H]3[C@@H](CC=C4C[C@@H](O)CC[C@@]43C)[C@@H]2CC[C@]12O[C@@H]1C[C@H](C)CN[C@H]1[C@H]2C` [cyclopamine] was tested, and the “inhibition of Shh-induced proliferation” value [1] was “inhibited”, the IC50 ([2]; Mus musculus, 48 h, read-out: IC50 (concentration needed for 50% of maximal inhibition)) was 0.5 to 2 µM and the “clearance of lymphoma cells from the stromal layer” value ([2]; Myc-Ly4, 5 μM, within 48 h) was “complete clearance”. For the same compound, the “Response rate to cyclopamine treatment (responsive/tested cultures)” value (“Response rate … (responsive/tested cultures)” below) ([2]; B-cell lymphoma) was 8/10 and (8/10), the “Response rate … (responsive/tested cultures)” value ([2]; mixed lymphomas) was 1/2 and the “Response rate to cyclopamine treatment” value ([2]; mixed lymphomas) was 50%. The “Response rate … (responsive/tested cultures)” value ([2]; plasmacytoma) was 6/9, the “Response rate to cyclopamine treatment” value ([2]; plasmacytoma) was 66% and the “Response rate … (responsive/tested cultures)” value ([2]; plasmoblastoma) was 8/10 and (8/10). The “Response rate to cyclopamine treatment” value ([2]; plasmoblastoma) was 80%, the “lymphomas sensitive to Hh pathway inhibition” value ([2]; all Eμ-Myc-lymphomas, sensitivity = greater than 80% growth inhibition at 5 μM) was 74.1% and the “apoptotic cells (annexin V)” value ([3]; after 48 hours) was roughly 100%. The “apoptotic cells (annexin V)” value ([3]; within 12 hours) was “more than 50%”, the “G2/M phase of remaining viable cells” value [4] was 13.3% and the IC50 ([5]; cyclopamine sensitive lymphoma cell lines without overexpression) was 1 µM. The IC50 ([5]; overexpression of Fused) was greater than 10 µM, the IC50 ([5]; overexpression of Gli1) was greater than 10 µM and the IC50 ([5]; overexpression of Smo A562G) was 4.5 µM. The IC50 ([5]; overexpression of Smo W535L) was 3.5 µM, the IC50 ([5]; overexpression of Smo wt) was 3 µM and the “apoptosis induction by cyclopamine” value ([5]; overexpression of Fused) was “nearly complete inhibition of apoptosis induction”. The “response of Myc-Ly6 to cyclopamine treatment” value ([5]; overexpression of Gli1) was “partial resistance”, the cyclopamine induced apoptosis ([6]; Myc/Bax−/− cells) was “partial resistance” and the cyclopamine induced apoptosis ([6]; Myc/Caspase 3−/− cells) was “partial resistance”. The apoptosis ([6]; Myc/Cdkn2a−/− lymphoma cells) was “induced apoptosis”, the apoptosis ([6]; Myc/p53−/− lymphoma cells) was “induced apoptosis” and the median survival ([7]; 25 mg/kg/day s.c., max 21 days, control group 16 days) was 20 days. For the same compound, the “signs of disease (bioluminescence imaging)” value ([7]; 50 and 100 mg/kg/day s.c. from day 2, twelve days post-injection) was “only minimal signs of disease”, the “response (survival curves)” value ([7]; lymphoma with in vitro resistance and overexpression of Gli3, 100 mg/kg/day) was “only minimal response” and the response in vivo ([7]; two additional lymphoma cells (1 plasmoblastoma and 1 B-cell lymphoma), similar conditions) was “responsive in vivo”. For the same compound, the “infiltration of the spleen” value [8, 9] was “markedly decreased”, the “lymphoma mass in lymph nodes and other organs” value [8, 9] was “reduced lymphoma mass” and the “PARP staining of spleen” value ([8]; after 3 days of treatment) was “apoptosis induction”. The “histopathology of spleens (H&E)” value ([8]; after 3 days of treatment) was “reduction of lymphoma cells in the spleen”, the “Ki67 staining of spleen” value ([8]; after 3 days of treatment, compared to vehicle group) was “strong decrease of high proliferative cells” and the “decrease of spleen weight” value ([8]; three-day treatment, compared to vehicle control group) was roughly 50%.

— US20110044991A1, “METHODS AND COMPOSITIONS FOR TREATING LYMPHOMA AND MYELOMA” (IRM LLC, priority 2006, published 2011)
